Results reported in publication PMC11456916, “A screen for cell envelope stress uncovers an inhibitor of prolipoprotein diacylglyceryl transferase, Lgt, in Escherichiacoli” (iScience, 2024).
Read-outs that look alike come from different tables or passages of the source.

Experiments:
Type in all cases: cell-based
E. coli ΔtolC = test: MIC assay, E. coli ΔtolC; conditions: growth inhibition, in words
Description: (§1) For MIC assays, cultures of bacteria were grown in LB broth. Overnight cultures were diluted (1:100) into fresh LB media and grown to the mid-log phase of growth (OD600 ∼0.5). Subcultures were then normalized to an OD600 of 0.1, and diluted (1:5000) into assay media. Assay plates were then incubated for 18 h at 37°C, then OD600 was measured using a Biotek Neo plate reader.

E. coli CFT073 = test: MIC assay with or without SPR741, E. coli CFT073; conditions: Escherichia coli
Description: We next sought to determine whether we could achieve growth inhibition of wild-type E. coli using MAC-0452936 and an antibiotic adjuvant. […] To that end, we determined the MIC of MAC-0452936 against wild-type E. coli in the presence and absence of a sub-MIC concentration of SPR741 (Figure S8B). […] We leveraged this combination to characterize the spectrum of activity of MAC-0452936 against a panel of Gram-negative pathogens (Table 2). In the presence of 8 μg/mL SPR741, we observed MAC-0452936 activity against the clinical E. coli isolates C0244 and CFT073 at 2 μg/mL as well as against Salmonella Typhimurium SL1344 at 4 μg/mL.
as §1

E. coli ΔtolC-pore = test: Time-kill assay
Text: As Lgt is found at the inner membrane of Gram-negative bacteria, we sought to rule out physical perturbation of the membrane as the cause of the antibacterial activity observed for MAC-0452936. […] To that end, we treated both non-growing E. coli ΔtolC-pore in a nutrient-deplete medium (PBS) and actively growing E. coli ΔtolC-pore in a nutrient-replete medium (LB) with varying concentrations of MAC-0452936 and enumerated colony-forming units (CFUs) at different time points (Figure S9A). […] Indeed, MAC-0452936 reduced the bacterial counts of E. coli ΔtolC-pore to the limit of detection after 6 h at compound concentrations greater than 2 μg/mL. We then tested MAC-0452936 for hemolytic activity against human-derived red blood cells and cytotoxicity against HEK-293 cells. […] However, we did observe a modest decrease in the viability of HEK-293 cells when treated with concentrations of MAC-0452936 greater than 8 μg/mL.
E. coli ΔtolC-pore was grown overnight in LB broth. For killing in nutrient-deplete media, overnight culture was pelleted by centrifugation at 5,000g for 30 min, and resuspended in sterile PBS buffer. Cells in PBS were added to a microwell plate containing different concentrations of MAC-0452936 (100 μL final volume), and incubated for the specified time at 37°C with shaking. At the specified time points, cultures were pelleted by centrifugation 5,000g for 30 min at 4°C, then 10-fold serially diluted in PBS before being plated on LB agar for CFU enumeration. For killing of actively growing cells in nutrient replete media, overnight culture of E. coli ΔtolC-pore was diluted 1/1000 into fresh LB broth and grown at 37°C with shaking to the early-log phase of growth (∼2.5 h, OD600 ∼0.2). Cells in LB broth were then added to a microwell plate containing different concentrations of MAC-0452936 (100 μL final volume), and incubated for the specified time at 37°C with shaking. At the specified time points, cultures were pelleted by centrifugation 5,000g for 30 min at 4°C, then 10-fold serially diluted in PBS before being plated on LB agar for CFU enumeration.

human red blood cells = test: Haemolysis assay; conditions: 37°C, 1 h
Description: To determine the haemolytic activity and cytotoxicity of MAC-0452936, pooled human blood and HEK293t cells were used, respectively. Fresh pooled human blood for haemolytic assay was acquired from […] Technologies, whilst, HEK293t cells were originally acquired from ATCC (Cat# CRL-3216) and were regularly grown in […] (DMEM) with 10% fetal bovine serum (FBS), L-glutamine and incubated at 37°C. Cell lines are regularly tested for mycoplasma contamination.
Haemolytic activity of MAC-0452936 was assessed as described previously. Fresh human blood (10 mL, Stem Cell Technologies, USA) was centrifuged at 4,000 rpm for 10 min. The supernatant was discarded, and the pellet was rinsed three times with 1× PBS. Subsequently, the pellet was diluted 1:5 (v/v) in 1× PBS and RBC suspensions (0.5 mL each) were incubated with varying concentrations of test compounds at 37°C for 1 h. Following this, the cell suspensions were centrifuged at 5,000g for 10 min and the supernatant was meticulously collected without disturbing the pellet. Hemolysis was assessed by measuring the absorbance of the released hemoglobin in the supernatant at 540 nm using a spectrophotometer. Triton X-100 (0.1%) was used as the positive control causing 100 per cent hemolysis. All experiments were performed in triplicates.

COc1ccc(C(=O)O/N=C(\c2cccs2)C(C)(C)C)cc1 [MAC-0452936, (Z)-2-Pivaloylthiophene O-(4-methoxybenzoyl) oxime]
activity against E. coli ΔtolC (E. coli ΔtolC): active | MIC (E. coli CFT073; CFT073, read-out: MIC, E. coli CFT073 + 8 μg/mL SPR741): 2 µg/mL | MIC (E. coli CFT073; CFT073, read-out: MIC, E. coli CFT073 + 0 μg/mL SPR741): > 64 µg/mL | compound concentrations that reduced bacterial counts to the limit of detection (E. coli ΔtolC-pore; LB, after 6 h): greater than 2 μg/mL | killing of non-growing bacteria (E. coli ΔtolC-pore; nutrient-deplete medium (PBS), CFU): could not kill non-growing bacteria | killing of actively growing bacteria (E. coli ΔtolC-pore; nutrient-replete medium (LB), CFU): potent bactericidal activity | hemolysis of human red blood cells (human red blood cells): did not observe hemolysis
